Earlier results on one compound are cited in patent US20090005322A1, “Physiologically- Active Composition Based on Collagen” (priority 2004, published 2009).

The subject of this data set is human peripheral polymorphonuclear leucocytes.

As to `C[C@@H]1O[C@@H](O[C@@H]2[C@@H](O)[C@H](OCCc3ccc(O)c(O)c3)O[C@H](CO)[C@H]2OC(=O)/C=C/c2ccc(O)c(O)c2)[C@H](O)[C@H](O)[C@H]1O` [Acteoside, acteoside], the “formation of eicosatetraenoic acid derivatives (5-HET)” value is listed as “inhibits” and the “formation of leucotriene B4” value is reported as “inhibits”.
